# Test results as given in PMC7961380, “A Systematic Study of the In Vitro Pharmacokinetics and Estimated Human In Vivo Clearance of Indole and Indazole-3-Carboxamide Synthetic Cannabinoid Receptor Agonists Detected on the Illicit Drug Market” (Molecules, 2021).
# Like-named read-outs stand apart in the source and are kept apart here.
# What was measured:
# [1] = Chromatographic hydrophobicity index (CHI) log D at pH 7.4; details: for chromatographic logD: reversed-phase HPLC, Acquity BEH C18 column
# Method: Chromatographic hydrophobicity index (CHI) log D samples (see below) were analysed using high-performance liquid chromatography (HPLC) with a Shimadzu Nexera X2 HPLC coupled to a Shimadzu SPD-30 MA photodiode array detector (PDA) (Shimadzu, Kyoto, Japan). […] The sample chamber was maintained at 25 °C. Gradient elution was performed, with mobile phase (MP) consisting of ammonium acetate in water (10 mM, pH 7.4) (MP A) and acetonitrile (MP B).
# A calibration mix of ten compounds at 10 µg mL^−1 in 1:1 (v/v) water:ACN was used (theophylline, phenyltetrazole, benzimidazole, colchicine, phenyltheophilline, acetophenone, indole, propiophenone, butyrophenone and valerophenone (all Sigma-Aldrich)). Test compounds were prepared at 0.25 mM in 1:1 (v/v) water:ACN. Samples (n = 2 for calibration standards; n = 1 for test compounds) were analysed using UPLC-PDA as described above. Retention times of calibration compounds are used to calculate retention factor (k), which is plotted against literature CHI values for each compound.
# Where tr is the retention time of the analyte and t0 is the retention time of an unretained compound
# Calculation of chromatographic hydrophobicity index (CHI)
# CHI = (𝑘 x slope) − intercept Eqn.4
# Where k is the retention factor of the analyte.
# Calculation of CHI Log D [1]
# Where CHI is the chromatographic hydrophobicity index obtained using Equation 4
# [2] = HLM, ref 14 (THJ-018, THJ-2201), 15 (NNEI, MN-18), 106 (NM-2201), 107 (BIM-2201), 108 (STS-135), 16 (AB-PINACA, 5F-AB-PINACA), 54 (5F-MDMB-PINACA), 69 (AB-FUBINACA), 17 (ADB-FUBINACA), 97 (FDU-PB-22, FUB-PB-22), cited from earlier work; for t1/2: 73 (AMB-PINACA, 5F-AMB-PINACA)
# [3] = Plasma protein binding by equilibrium dialysis; format: in vitro ADME, human; details: human, pooled human plasma, pH 7.4, equilibrium dialysis 5 h, 37 °C
# [4] = Metabolic stability, pooled human liver microsome incubations; details: for Predicted In Vivo Hepatic Clearance, CLH: from pHLM CLint, well-stirred model with plasma fu, Q 21 mL min^−1 kg^−1; for CLint scaled at 0.5 µM / half-life at 0.5 µM: human, microsomes; for CLint scaled at 0.5 µM: pH 7.4, Intrinsic clearance; for half-life at 0.5 µM: pH 7.4, T1/2 (min), pHLM 0.5 mg mL^−1, 0.5 µM, NADPH, 37 °C; for half-life at 0.5 µM / Microsomal Intrinsic Clearance, CLint micr: n ≥ 3 ± SD
# [5] = Short-term plasma stability with and without esterase inhibitors; details: human, pH 7.4, Parent Compound Remaining (%), 3 h, 37 °C
# [6] = Metabolic stability, pooled human cryopreserved hepatocyte incubations; details: human, hepatocytes; for CLint scaled at 0.5 µM: Intrinsic clearance, pHHeps, alternative hepatocyte cell density 99x10^6 hepatocytes per gram liver; for half-life at 0.5 µM: T1/2 (min), pHHeps 0.25 million cells mL^−1, 0.5 µM, 37 °C, n ≥ 3 ± SD
# [7] = tested on: pooled human cryopreserved hepatocytes (pHHeps); assay: as above; details: for Predicted In Vivo Hepatic Clearance, CLH: from pHHeps CLint, well-stirred model with plasma fu, Q 21 mL min^−1 kg^−1
# [8] = 95 (Cumyl-PICA, 5F-Cumyl-PICA), 57 (AMB-4en-PICA), 109 (5F-APP-PICA, 5F-APP-PINACA, […]
# [9] = 10 µg mL^−1, read-out: PPB (%) (converted)
# [10] = plasma, read-out: Fraction Unbound (fu)
# [11] = pHLM, alternative microsomal scaling factor 32 mg microsomal protein per gram liver
# [12] = pHLM, alternative microsomal scaling factor 45 mg microsomal protein per gram liver
# [13] = pHLM, scaling factor 32 mg microsomal protein per gram liver
# [14] = pHLM, scaling factor 45 mg microsomal protein per gram liver
# [15] = Esterase Inhibitors, pH 7.4, BNPP and PMSF 500 µM each
# [16] = plasma, No Esterase Inhibitors, pH 7.4, pooled human plasma
# [17] = pHHeps, 99x10^6 hepatocytes per gram liver
compound,measurement,setting,value
"C=CCCCn1cc(C(=O)NC(C(=O)OC)C(C)(C)C)c2ccccc21 (stereo not drawn) [MDMB-4en-PICA (12), methyl 3,3-dimethyl-2-[1-(pent-4-en-1-yl)-1H-indole-3-carboxamido]butanoate]",chromatographic logD,[1],4.4
"COC(=O)[C@@H](NC(=O)c1nn(Cc2ccc(F)cc2)c2ccccc12)C(C)C [AMB-FUBINACA (1), methyl [1-(4-fluorobenzyl)-1H-indazole-3-carbonyl]valinate]",chromatographic logD,[1],4.28
"COC(=O)[C@@H](NC(=O)c1nn(CCCCCF)c2ccccc12)C(C)C [5F-AMB-PINACA (10), methyl [1-(5-fluoropentyl)-1H-indazole-3-carbonyl]valinate]",CLint micr,"[2]; 95 (Cumyl-PICA, 5F-Cumyl-PICA), 73 (5F-AMB-PINACA), 109 (5F-APP-PICA, 5F-APP-PINACA, […]",0.67 mL/min/mg
same,t1/2,[2]; [8],1.0 min
same,chromatographic logD,[1],4.07
"C=CCCCn1cc(C(=O)NC(C(=O)OC)C(C)C)c2ccccc21 (stereo not drawn) [AMB-4en-PICA (7), methyl 3-methyl-2-[(1-pent-4-enylindole-3-carbonyl)amino] butanoate]",t1/2,[2]; [8],2.1 min
same,CLint,[2]; 57 (AMB-4en-PICA),291 mL/min/kg
same,chromatographic logD,[1],3.97
"methyl 2-[1-(5-fluoropentyl)-1H-indazole-3-carboxamido]-3,3-dimethylbutanoate [MDMB-FUBINACA (6)]",Experimental Log D7.4,"[1]; CHI log D, determined for the (S)-enantiomer, n = 1",4.69
"CC(C)C(NC(=O)c1nn(CC2CCCCC2)c2ccccc12)C(N)=O (stereo not drawn) [AB-[…] (11), N-[1-amino-3-methyl-1-oxobutan-2-yl]-1-(cyclohexylmethyl)-1H-indazole-3-carboxamide]",chromatographic logD,[1],3.71
"C=CCCCn1cc(C(=O)N[C@H](C(=O)OC)C(C)C)c2ccccc21 [(S)-AMB-4en-PICA (7), methyl 3-methyl-2-[(1-pent-4-enylindole-3-carbonyl)amino] butanoate]","fraction unbound at 5 h, 10 µg mL^−1",[3]; [9],0.053
same,"fraction unbound at 5 h, 10 µg mL^−1",[3]; [10],0.053 ± 0.0037
same,"Predicted In Vivo Hepatic Clearance, CLH",[4],9.29 ± 0.89 mL/min/kg
same,"Hepatic extraction ratio, EH",[4]; from pHLM incubations,0.44 ± 0.042
same,CLint scaled at 0.5 µM,[4]; [11],194 mL/min/kg
same,CLint scaled at 0.5 µM,[4]; [12],273 mL/min/kg
same,half-life at 0.5 µM,[4],6 ± 1 min
same,"% parent compound remaining, Average","[4]; pHLM, 3 min",67.6%
same,"% parent compound remaining, Average","[4]; pHLM, 6 min",49.5%
same,"% parent compound remaining, Average","[4]; pHLM, 9 min",36.3%
same,"% parent compound remaining, Average","[4]; pHLM, 15 min",18.0%
same,"% parent compound remaining, Average","[4]; pHLM, 30 min",3.0%
same,"Microsomal Intrinsic Clearance, CLint micr",[4]; pHLM,0.236 ± 0.042 mL min^−1 mg Microsomal Protein^−1
same,"Hepatic extraction ratio, EH",[4]; [13],0.33 ± 0.038
same,"Predicted in vivo hepatic clearance, CLH",[4]; [13],6.86 mL/min/kg
same,"Predicted in vivo hepatic clearance, CLH",[4]; [14],8.51 mL/min/kg
same,"remaining at 3 h, 5 µM",[5]; [15],95.6 ± 6.8%
same,"remaining at 3 h, 5 µM",[5]; [16],92.6 ± 8.3%
same,CLint scaled at 0.5 µM,[6],1120 mL/min/kg
same,half-life at 0.5 µM,[6],6.9 ± 2.1 min
same,"Predicted In Vivo Hepatic Clearance, CLH",[7],15.56 ± 1.24 mL/min/kg
same,"Hepatic extraction ratio, EH",[7]; from pHHeps incubations,0.74 ± 0.059
same,"Hepatic extraction ratio, EH",[7]; [17],0.73 ± 0.061
same,"Predicted in vivo hepatic clearance, CLH",[7]; [17],15.25 ± 1.28 mL/min/kg
same,"% parent compound remaining, Average","[7]; pHHeps, 3 min",68.4%
same,"% parent compound remaining, Average","[7]; pHHeps, 6 min",54.6%
same,"% parent compound remaining, Average","[7]; pHHeps, 9 min",33.2%
same,"% parent compound remaining, Average","[7]; pHHeps, 15 min",19.4%
same,"% parent compound remaining, Average","[7]; pHHeps, 30 min",6.5%
same,"% parent compound remaining, Average","[7]; pHHeps, 45 min",1.9%
same,"% parent compound remaining, Average","[7]; pHHeps, 60 min",0.6%
"COC(=O)C(NC(=O)c1cn(CCCCCF)c2ccccc12)C(C)(C)C (stereo not drawn) [5F-MDMB-PICA (3), methyl 2-[1-(5-fluoropentyl)-1H-indole-3-carboxamido]-3,3-dimethylbutanoate]",chromatographic logD,[1],4.06
"C=CCCCn1cc(C(=O)N[C@H](C(=O)OC)C(C)(C)C)c2ccccc21 [(S)-MDMB-4en-PICA (12), methyl 3,3-dimethyl-2-[1-(pent-4-en-1-yl)-1H-indole-3-carboxamido]butanoate]","fraction unbound at 5 h, 10 µg mL^−1",[3]; [9],0.035
same,"fraction unbound at 5 h, 10 µg mL^−1",[3]; [10],0.035 ± 0.0031
same,"Predicted In Vivo Hepatic Clearance, CLH",[4],5.69 ± 0.61 mL/min/kg
same,"Hepatic extraction ratio, EH",[4]; from pHLM incubations,0.27 ± 0.029
same,CLint scaled at 0.5 µM,[4]; [11],137 mL/min/kg
same,CLint scaled at 0.5 µM,[4]; [12],192 mL/min/kg
same,half-life at 0.5 µM,[4],8.5 ± 1.3 min
same,"% parent compound remaining, Average","[4]; pHLM, 3 min",77.5%
same,"% parent compound remaining, Average","[4]; pHLM, 6 min",62.6%
same,"% parent compound remaining, Average","[4]; pHLM, 9 min",50.2%
same,"% parent compound remaining, Average","[4]; pHLM, 15 min",28.5%
same,"% parent compound remaining, Average","[4]; pHLM, 30 min",5.6%
same,"Microsomal Intrinsic Clearance, CLint micr",[4]; pHLM,0.166 ± 0.024 mL min^−1 mg Microsomal Protein^−1
same,"Hepatic extraction ratio, EH",[4]; [13],0.18 ± 0.022
same,"Predicted in vivo hepatic clearance, CLH",[4]; [13],3.88 mL/min/kg
same,"Hepatic extraction ratio, EH",[4]; [14],0.24 ± 0.027
same,"Predicted in vivo hepatic clearance, CLH",[4]; [14],5.07 ± 0.57 mL/min/kg
same,"remaining at 3 h, 5 µM",[5]; [15],89.4 ± 2.3%
same,"remaining at 3 h, 5 µM",[5]; [16],91.5 ± 8.6%
same,CLint scaled at 0.5 µM,[6],197 mL/min/kg
same,half-life at 0.5 µM,[6],37 ± 6.9 min
same,"Predicted In Vivo Hepatic Clearance, CLH",[7],5.46 ± 0.78 mL/min/kg
same,"Hepatic extraction ratio, EH",[7]; from pHHeps incubations,0.26 ± 0.037
same,"Hepatic extraction ratio, EH",[7]; [17],0.25
same,"Predicted in vivo hepatic clearance, CLH",[7]; [17],5.15 mL/min/kg
same,"% parent compound remaining, Average","[7]; pHHeps, 3 min",93.4%
same,"% parent compound remaining, Average","[7]; pHHeps, 6 min",83.7%
same,"% parent compound remaining, Average","[7]; pHHeps, 9 min",80.4%
same,"% parent compound remaining, Average","[7]; pHHeps, 15 min",74.0%
same,"% parent compound remaining, Average","[7]; pHHeps, 30 min",51.6%
same,"% parent compound remaining, Average","[7]; pHHeps, 45 min",34.2%
same,"% parent compound remaining, Average","[7]; pHHeps, 60 min",25.0%
"COC(=O)[C@@H](NC(=O)c1cn(CC2CCCCC2)c2ccccc12)C(C)C [AMB-CHMICA (9), methyl [1-(cyclohexylmethyl)-1H-indole-3-carbonyl]valinate]",chromatographic logD,[1],4.77
"COC(=O)C(NC(=O)c1nn(CCCCF)c2ccccc12)C(C)(C)C (stereo not drawn) [4F-MDMB-BINACA (4), methyl 2-[1-(4-fluorobutyl)-1H-indazole-3-carboxamido]-3,3-dimethylbutanoate]",chromatographic logD,[1],4.18
"COC(=O)[C@@H](NC(=O)c1cn(CC2CCCCC2)c2ccccc12)C(C)C [(S)-AMB-CHMICA (9), methyl [1-(cyclohexylmethyl)-1H-indole-3-carbonyl]valinate]","fraction unbound at 5 h, 10 µg mL^−1",[3]; [9],0.012
same,"fraction unbound at 5 h, 10 µg mL^−1",[3]; [10],0.012 ± 0.0006
same,"Predicted In Vivo Hepatic Clearance, CLH",[4],4.37 ± 0.68 mL/min/kg
same,"Hepatic extraction ratio, EH",[4]; from pHLM incubations,0.21 ± 0.032
same,CLint scaled at 0.5 µM,[4]; [11],282 mL/min/kg
same,CLint scaled at 0.5 µM,[4]; [12],397 mL/min/kg
same,half-life at 0.5 µM,[4],4.1 ± 0.75 min
same,"% parent compound remaining, Average","[4]; pHLM, 3 min",52.7%
same,"% parent compound remaining, Average","[4]; pHLM, 6 min",35.1%
same,"% parent compound remaining, Average","[4]; pHLM, 9 min",25.3%
same,"% parent compound remaining, Average","[4]; pHLM, 15 min",9.9%
same,"% parent compound remaining, Average","[4]; pHLM, 30 min",2.5%
same,"Microsomal Intrinsic Clearance, CLint micr",[4]; pHLM,0.343 ± 0.069 mL min^−1 mg Microsomal Protein^−1
same,"Hepatic extraction ratio, EH",[4]; [13],0.14 ± 0.024
same,"Predicted in vivo hepatic clearance, CLH",[4]; [13],2.91 ± 0.50 mL/min/kg
same,"Hepatic extraction ratio, EH",[4]; [14],0.18 ± 0.030
same,"Predicted in vivo hepatic clearance, CLH",[4]; [14],3.87 ± 0.62 mL/min/kg
same,"remaining at 3 h, 5 µM",[5]; [15],90.5 ± 3.4%
same,"remaining at 3 h, 5 µM",[5]; [16],93.9 ± 9.3%
same,CLint scaled at 0.5 µM,[6],935 ± 44.8 mL/min/kg
same,half-life at 0.5 µM,[6],7.6 ± 0.35 min
same,"Predicted In Vivo Hepatic Clearance, CLH",[7],7.68 ± 0.22 mL/min/kg
same,"Hepatic extraction ratio, EH",[7]; from pHHeps incubations,0.37 ± 0.011
same,"Hepatic extraction ratio, EH",[7]; [17],0.35 ± 0.011
same,"Predicted in vivo hepatic clearance, CLH",[7]; [17],7.31 ± 0.23 mL/min/kg
same,"% parent compound remaining, Average","[7]; pHHeps, 3 min",65.0%
same,"% parent compound remaining, Average","[7]; pHHeps, 6 min",58.4%
same,"% parent compound remaining, Average","[7]; pHHeps, 9 min",43.3%
same,"% parent compound remaining, Average","[7]; pHHeps, 15 min",23.8%
same,"% parent compound remaining, Average","[7]; pHHeps, 30 min",8.7%
same,"% parent compound remaining, Average","[7]; pHHeps, 45 min",3.5%
same,"% parent compound remaining, Average","[7]; pHHeps, 60 min",1.5%
